# Results as given in patent US20160039676A1, “Fullerene Derivatives and Their Applications in Organic Photovoltaics” (Nano and Advanced Materials Institute Limited, priority 2014, published 2016).
# Legend:
# [1] = Electrochemical properties (onset oxidation/reduction potentials, HOMO, LUMO, gap); format: physicochemical; set-up: Eox / Ered: unit not given here; conditions: for HOMO: HOMO = −e(Eox + 4.32); for Eg: HOMO-LUMO gap; for LUMO: LUMO = −e(Ered + 4.32); for Eox: onset oxidation potential; for Ered: onset reduction potential
# Text: The energy difference between HOMO and LUMO is also illustrated in FIG. 4. […] The compounds of formulae 1b-d have similar energy difference between HOMO and LUMO, meaning their potential energy levels are similar. Among the compounds of formulae 1a-d, it appears that the compound of formula 1a has the best potential energy suitable for being applied in organic photovoltaics; the compound of formula 1c is the second best.
# [2] = Relative solubility in non-halogenated solvents, evaluated by visual observation; format: physicochemical; conditions: concentration 30 mg/mL
# Protocol: Each of the compounds is added into the test tubes containing five organic solvents at a concentration of 30 mg/mL.
HOMO [1] [eV],Eg [1] [eV],LUMO [1] [eV],Eox [1],Ered [1],Relative solubility in diethyl ether [2],Relative solubility in ethanol [2],Relative solubility in ethyl acetate [2],Relative solubility in tetrahydrofuran (THF) ([2]; THF),SMILES,Relative solubility in toluene [2]
−6.03,2.25,−3.78,1.71,−0.54,Insoluble,Insoluble,Insoluble,–,Cc1cccc(C)c1C(=O)OC12c3c4c5c6c7c8c(c9c%10c1c1c%11c3c3c%12c4c4c6c6c7c7c%13c8c9c8c9c%10c1c1c%10c%11c3c3c%11c%12c4c4c6c6c7c7c%13c8c8c9c1c1c%10c3c3c%11c4c6c4c7c8c1c34)C52OC[Si](C)(C)c1ccccc1 (stereo not drawn) [Formula 1b],–
−6.12,2.29,−3.83,1.80,−0.49,Insoluble,Insoluble,Insoluble,–,CCCC[Si](C)(C)OC12c3c4c5c6c7c8c(c9c%10c1c1c%11c3c3c%12c4c4c6c6c7c7c%13c8c9c8c9c%10c1c1c%10c%11c3c3c%11c%12c4c4c6c6c7c7c%13c8c8c9c1c1c%10c3c3c%11c4c6c4c7c8c1c34)C52OC(=O)c1c(C)cccc1C (stereo not drawn) [Formula 1c],Soluble
−6.06,2.22,−3.84,1.74,−0.48,Insoluble,Insoluble,Insoluble,Insoluble,Cc1cccc(C)c1C(=O)OC12c3c4c5c6c7c8c(c9c%10c1c1c%11c3c3c%12c4c4c6c6c7c7c%13c8c9c8c9c%10c1c1c%10c%11c3c3c%11c%12c4c4c6c6c7c7c%13c8c8c9c1c1c%10c3c3c%11c4c6c4c7c8c1c34)C52O[Si](C)(C)C(C)(C)C (stereo not drawn) [Formula 1d],–

SMILES,HOMO [1] [eV],Eg [1] [eV],LUMO [1] [eV],Eox [1],Ered [1],Relative solubility in diethyl ether [2],Relative solubility in ethanol [2],Relative solubility in ethyl acetate [2],Relative solubility in tetrahydrofuran (THF) ([2]; THF),Relative solubility in toluene [2]
Cc1cccc(C)c1C(=O)OC12c3c4c5c6c7c8c(c9c%10c1c1c%11c3c3c%12c4c4c6c6c7c7c%13c8c9c8c9c%10c1c1c%10c%11c3c3c%11c%12c4c4c6c6c7c7c%13c8c8c9c1c1c%10c3c3c%11c4c6c4c7c8c1c34)C52O[Si](C)(C)c1ccccc1 (stereo not drawn) [Formula 1a],−6.08,2.41,−3.67,1.76,−0.65,Insoluble,–,–,–,Soluble
